The source of these data is article PMC7150891, “Mertansine Inhibits mRNA Expression and Enzyme Activities of Cytochrome P450s and Uridine 5′-Diphospho-Glucuronosyltransferases in Human Hepatocytes and Liver Microsomes” (Pharmaceutics, 2020).

The structures appear in SMILES notation. Entries after “also recorded” stand apart in the source; their conditions may differ.

Details of data set [1]: method as in PMID 25048520, PMID 22752008. The settings on record: up to 1 µM; cited from earlier work.
A short description of data set [2]: MTS colorimetric cytotoxicity assay in human hepatocytes. Format: cell-based. The settings on record: human hepatocytes (lot 319), 48 h mertansine treatment (1.25–6250 nM), lot 319, MTS. On the procedure:
The hepatocytes were incubated with 0.0125, 0.0625, 0.125, 0.250, 0.625, 1.25, 2.5, and 6.25 μM mertansine in triplicate for 48 h at 37 °C in 5% CO2. The medium was exchanged with fresh medium containing mertansine every 24 h. Then, 20 μL of MTS solution was added to each well and the plate was incubated for 1 h at 37 °C in 5% CO2. The absorbance of the reaction mixture was measured at 492 nm.

In another data set the target is T1, UGT1A4 (Homo sapiens, UniProt P22310).
T1 construct: ultrapooled human liver microsomes (0.2 mg/mL); from tissue; host or cells: human liver microsomes (ultrapooled)
T1 sequence (P22310 29-534): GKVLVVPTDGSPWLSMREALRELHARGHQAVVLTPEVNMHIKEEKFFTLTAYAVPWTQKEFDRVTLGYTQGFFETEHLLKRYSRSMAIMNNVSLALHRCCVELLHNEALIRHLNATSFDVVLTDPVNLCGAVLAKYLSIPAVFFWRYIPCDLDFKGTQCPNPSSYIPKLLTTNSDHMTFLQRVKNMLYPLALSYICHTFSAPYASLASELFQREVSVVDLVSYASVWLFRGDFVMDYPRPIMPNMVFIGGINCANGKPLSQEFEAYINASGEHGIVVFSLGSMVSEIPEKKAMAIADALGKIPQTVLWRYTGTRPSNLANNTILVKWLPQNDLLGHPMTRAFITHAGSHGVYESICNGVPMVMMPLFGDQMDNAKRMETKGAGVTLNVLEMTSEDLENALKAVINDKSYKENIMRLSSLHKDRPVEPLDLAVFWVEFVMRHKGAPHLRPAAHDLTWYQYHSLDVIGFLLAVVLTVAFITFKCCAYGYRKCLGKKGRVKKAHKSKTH
Put plainly: Inhibition of UGT1A4-catalyzed trifluoperazine N-β-D-glucuronidation in ultrapooled human liver microsomes. It is filed as in vitro ADME. How it is done:
The inhibitory potential of mertansine on UGT1A1, UGT1A3, UGT1A4, UGT1A6, UGT1A9, and UGT2B7 activities was evaluated using liquid chromatography–tandem mass spectrometry (LC-MS/MS) with a cocktail of UGT substrates and ultrapooled human liver microsomes. Each incubation mixture was prepared to a final volume of 100 μL as follows: ultrapooled human liver microsomes (0.2 mg/mL), 5 mM UDPGA, 10 mM magnesium chloride, alamethicin (25 μg/mL), 50 mM Tris buffer (pH 7.4), various concentrations of mertansine in methanol (final concentrations of 0.01–50 μM), and the cocktail sets of UGT enzyme-specific substrates. Two cocktail sets were used: set A contained 0.5 μM SN-38 for UGT1A1, 2 μM chenodeoxycholic acid for UGT1A3, and 0.5 μM trifluoperazine for UGT1A4; and set B contained 1 μM N-acetylserotonin for UGT1A6, 0.2 μM mycophenolic acid for UGT1A9, and 1 μM naloxone for UGT2B7. The reactions were initiated by adding UDPGA and incubated in a shaking water bath for 60 min at 37 °C. […] Next, 50 μL of each supernatant of sets A and B was mixed, and aliquots (5 μL) were analyzed using LC-MS/MS. […]
The LC-MS/MS system was comprised of an Agilent 6495 triple quadrupole mass spectrometer coupled with an Agilent 1290 Infinity system (Agilent Technologies, Wilmington, DE, USA). […] The electrospray ionization (ESI) source settings in both positive and negative ion modes were as follows: gas temperature, 200 °C; gas flow, 14 L/min; nebulizer, 40 psi; sheath gas temperature, 380 °C; sheath gas flow, 11 L/min; capillary voltage, 4500 V; and nozzle voltage, 500 V. Each metabolite was quantified via selected reaction monitoring in the negative ion mode (chenodeoxycholic acid 24-acyl-β-glucuronide, m/z 567.1 to 391.2; mycophenolic acid β-D-glucuronide, m/z 495.0 to 319.0; propofol glucuronide (IS), m/z 353.0 to 177.0) and in the positive ion mode (SN-38 glucuronide, m/z 568.9 to 392.9; trifluoperazine N-β-D-glucuronide, m/z 583.9 to 407.9; N-acetylserotonin β-D-glucuronide, m/z 394.0 to 219.0; naloxone 3-β-D-glucuronide, m/z 503.9 to 309.9; meloxicam (IS), m/z 351.9 to 115.0). […]

Another data set has as its system CYP2C9 mRNA. The data set can be described thus: CYP2C9 mRNA level in human hepatocytes after 48 h treatment (RT-PCR). The following applies: plated cryopreserved human hepatocytes, IC50, suppression of CYP2C9 mRNA expression, 1.25–2500 nM.

Regarding `COc1cc2cc(c1Cl)N(C)C(=O)CC(OC(=O)C(C)N(C)C(=O)CCS)C1(C)OC1C(C)C1CC(O)(NC(=O)O1)C(OC)C=CC=C(C)C2` (stereo not drawn) [mertansine, Mertansine], the Induction potential result in data set [1] is recorded as “no induction potential”. Further, the viability at 48 h in data set [2] is more than 96.2%. At UGT1A4 (human liver microsomes, Dixon plot), the “Inhibition Mode, UGT1A4” value is “competitively inhibited; also recorded: competitive inhibitor”. This molecule also came in with a Ki on UGT1A4 (human liver microsomes, trifluoperazine 0.2–2 µM) of 21200 nM. For the same molecule, at UGT1A4 (ultrapooled human liver microsomes, 0.5 µM trifluoperazine (cocktail)), half-maximal inhibition (IC50) required 23300 nM. Besides, the IC50 at 48 h turned out to be 578 ± 452 nM in the data set on CYP2C9 mRNA (Mean ± SD of three human hepatocyte lots, 48 h); 788 nM with CYP2C9 mRNA (human hepatocytes Lot 319, 48 h); 888 nM with CYP2C9 mRNA (human hepatocytes Lot 321, 48 h); 59.6 nM in the data set on CYP2C9 mRNA (human hepatocytes Lot 361, 48 h).

In general, viability refers to the share of living cells, or the viability signal relative to a control. The Ki is a dissociation constant, usually derived from enzyme kinetics or from competition with a known ligand. A word on the IC50: it is the concentration that inhibits the measured activity by half. A lower IC50 goes with higher potency.
